Source: patent US12049439B2 (OrsoBio, Inc., priority 2018, dated 2024)

tested on: PC-3 cells; test: PC-3 Oxygen Rate Consumption (OCR) Assay; type: cell-based; conditions: Homo sapiens, 0.05 h, medium with 2% FBS, OCR at 3-min post-injection normalized to % increase over DMSO-treated cells, concentration for half-maximal OCR increase, read-out: EC50-PC3-OCR-FBS-3min
Method: PC-3 Oxygen Rate Consumption (OCR) Assay Procedure:
One day before the assay, PC-3 cells were seeded at 2.5×10^4 cells/160 μL/well in a 96-well XFe96 cell plate, part of a FlexPak containing a cell plate and a cartridge (Agilent, Sunnyvale, CA). The cells were incubated overnight at 37° C. in a 5% CO2 and 90% humidity incubator with F12K culture medium (ThermoFisher Scientific/Invitrogen, Grand Island, NY) containing 10% FBS and 1% penicillin/streptomycin. On the day of the assay, the cells were washed twice with 300 µL/well Medium A [XF assay medium (Agilent) supplemented 10 mM glucose, 1 mM pyruvate, and 2% fetal bovine serum (FBS)], and incubated with 175 µL/well Media A for 1 hr in a 37° C., non-CO2 incubator prior to the measurement of cellular respiration. Compounds of interests were prepared in 1:2 serial dilutions with 100% DMSO and then further diluted into 8× working stock with Media A prior to being loaded to Injection Port A on a XFe96 Analyzer (Agilent). Six replicates were used for each treatment. The cartridge was calibrated in the XFe96 Analyzer 30 minute prior to the measurement of cellular respiration. Basal levels of OCR were measured three times, each using a “3-minute mixing/3-minute measurement” program. The compound effect was measured immediately after compound injection from Injection Port A, and OCR was monitored continuously 10 times, each time using a “1-minute mixing/2-minute measurement” program for a total of 30 minutes post compound injection. The level of OCR at 3-min post-injection was normalized to % increase over DMSO-treated cells. The concentration of compound required to reach the half-maximal OCR increase was defined as EC50 Table 2 contains PC3 OCR EC50 values for the compounds disclosed.

Question: `O=C(NC12CC(C(F)(F)F)(C1)C2)c1ccc(C(F)(F)F)cc1NS(=O)(=O)c1ccccc1` [Example 38, 2-(phenylsulfonamido)-4-(trifluoromethyl)-N-(3-(trifluoromethyl)bicyclo[1.1.1]pentan-1-yl)benzamide] was tested. Which EC50 did it give?
Answer: The EC50 was 478 nM.

Question: Which EC50 does the source give for `CS(=O)(=O)Nc1ccc(C(F)(F)F)cc1C(=O)NC12CCC(C(F)(F)F)(CC1)CC2` [Example 183, 2-(methylsulfonamido)-5-(trifluoromethyl)-N-(4-(trifluoromethyl)bicyclo[2.2.2]octan-1-yl)benzamide] here?
Answer: Its EC50 is 824 nM.

Question: How did the EC50 turn out when `N#CC12CCC(NC(=O)c3cc(C(F)(F)F)ccc3NS(=O)(=O)N3CCOCC3)(CC1)CC2` [Example 178, N-(4-cyanobicyclo[2.2.2]octan-1-yl)-2-(morpholine-4-sulfonamido)-5-(trifluoromethyl)benzamide] was run?
Answer: Its EC50 is 5930 nM.

Question: Which EC50 does the source give for `CS(=O)(=O)Nc1ccc(C(F)(F)F)cc1C(=O)NC12CCC(C(F)F)(CC1)CC2` [Example 81, N-(4-(difluoromethyl)bicyclo[2.2.2]octan-1-yl)-2-(methylsulfonamido)-5-(trifluoromethyl)benzamide] here?
Answer: The EC50 was 2390 nM.

Question: Which EC50 does the source give for `O=C(NC12CC(C(F)(F)F)(C1)C2)c1ccc(OC(F)(F)F)cc1NS(=O)(=O)N1CCS(=O)(=O)CC1` [Example 245, 2-((1,1-dioxidothiomorpholine)-4-sulfonamido)-4-(trifluoromethoxy)-N-(3-(trifluoromethyl)bicyclo[1.1.1]pentan-1-yl)benzamide] here?
Answer: The EC50 was 3840 nM.

Question: `O=C(NC12CC(C(F)(F)F)(C1)C2)c1ccc(C(F)(F)F)cc1NS(=O)(=O)c1ccc(-n2cnnn2)cc1` [Example 17, 2-((4-(1H-tetrazol-1-yl)phenyl)sulfonamido)-4-(trifluoromethyl)-N-(3-(trifluoromethyl)bicyclo[1.1.1]pentan-1-yl)benzamide] was tested. Which EC50 did it give?
Answer: The EC50 was 5830 nM.

Question: For `CS(=O)(=O)Nc1cc(S(F)(F)(F)(F)F)ccc1C(=O)NC12CC(C(F)(F)F)(C1)C2` [Example 146, 2-(methylsulfonamido)-4-(pentafluoro-λ^6-sulfanyl)-N-(3-(trifluoromethyl)bicyclo[1.1.1]pentan-1-yl)benzamide], which EC50 is on record?
Answer: Its EC50 is 677 nM.

Question: `CC(C)(C)S(=O)(=O)Nc1cc(C#N)ccc1C(=O)NC12CC(C(F)(F)F)(C1)C2` [Example 99, 4-cyano-2-((1,1-dimethylethyl)sulfonamido)-N-(3-(trifluoromethyl)bicyclo[1.1.1]pentan-1-yl)benzamide] was tested. Which EC50 did it give?
Answer: The EC50 was 1180 nM.

Question: With `CC(C)S(=O)(=O)Nc1ccc(C(F)(F)F)cc1C(=O)NC12CC(Cl)(C1)C2` [Example 70, N-(3-chlorobicyclo[1.1.1]pentan-1-yl)-2-((1-methylethyl)sulfonamido)-5-(trifluoromethyl)benzamide] as the compound, how does the EC50 read?
Answer: Its EC50 is 591 nM.

Question: `N#CC12CCC(NC(=O)c3cc(C(F)(F)F)ccc3NS(=O)(=O)c3ccccc3)(CC1)CC2` [Example 122, N-(4-cyanobicyclo[2.2.2]octan-1-yl)-2-(phenylsulfonamido)-5-(trifluoromethyl)benzamide] was tested. Which EC50 did it give?
Answer: Its EC50 is 1520 nM.

Question: For `CN(C)S(=O)(=O)Nc1ccc(C(F)(F)F)cc1C(=O)NC12CC(C(F)(F)F)(C1)C2` [Example 189, 2-((N,N-dimethylsulfamoyl)amino)-5-(trifluoromethyl)-N-(3-(trifluoromethyl)bicyclo[1.1.1]pentan-1-yl)benzamide], which EC50 is on record?
Answer: The EC50 was 511 nM.

Question: With `O=C(NC12CCC(C(F)(F)F)(CC1)CC2)c1ccc(F)cc1NS(=O)(=O)N1CCS(=O)(=O)CC1` [Example 231, 2-((1,1-dioxidothiomorpholine)-4-sulfonamido)-4-fluoro-N-(4-(trifluoromethyl)bicyclo[2.2.2]octan-1-yl)benzamide] as the compound, how does the EC50 read?
Answer: The EC50 was 4690 nM.

Question: How did the EC50 turn out when `N#CC12CC(NC(=O)c3ccc(C(F)(F)F)cc3NS(=O)(=O)c3ccc4ccccc4c3)(C1)C2` [Example 35, N-(3-cyanobicyclo[1.1.1]pentan-1-yl)-2-(naphthalene-2-sulfonamido)-4-(trifluoromethyl)benzamide] was run?
Answer: The EC50 was 1210 nM.

Question: For `COc1ccc(S(=O)(=O)Nc2cc(C(F)(F)F)ccc2C(=O)NC23CC(C(F)(F)F)(C2)C3)cc1` [Example 111, 2-((4-methoxyphenyl)sulfonamido)-4-(trifluoromethyl)-N-(3-(trifluoromethyl)bicyclo[1.1.1]pentan-1-yl)benzamide], which EC50 is on record?
Answer: Its EC50 is 811 nM.

Question: Which EC50 does the source give for `CC1(S(=O)(=O)Nc2cc(C(F)(F)F)ccc2C(=O)NC23CC(C(F)(F)F)(C2)C3)CC1` [Example 63, 2-((1-methylcyclopropane)-1-sulfonamido)-4-(trifluoromethyl)-N-(3-(trifluoromethyl)bicyclo[1.1.1]pentan-1-yl)benzamide] here?
Answer: Its EC50 is 937 nM.

Question: With `CS(=O)(=O)c1ccc(S(=O)(=O)Nc2cc(Cl)c(Cl)cc2C(=O)NC23CC(c4ccccc4)(C2)C3)cc1` [Example 93, 4,5-dichloro-2-((4-(methylsulfonyl)phenyl)sulfonamido)-N-(3-phenylbicyclo[1.1.1]pentan-1-yl)benzamide] as the compound, how does the EC50 read?
Answer: Its EC50 is 2640 nM.

Question: `CN(C)c1ccc(S(=O)(=O)Nc2cc(C(F)(F)F)ccc2C(=O)NC23CC(C(F)(F)F)(C2)C3)cc1` [Example 102, 2-((4-(dimethylamino)phenyl)sulfonamido)-4-(trifluoromethyl)-N-(3-(trifluoromethyl)bicyclo[1.1.1]pentan-1-yl)benzamide] was tested. Which EC50 did it give?
Answer: The EC50 was 2420 nM.

Question: How did the EC50 turn out when `CN(C)S(=O)(=O)Nc1cc(F)c(F)cc1C(=O)NC12CCC(C#N)(CC1)CC2` [Example 236, N-(4-cyanobicyclo[2.2.2]octan-1-yl)-2-((N,N-dimethylsulfamoyl)amino)-4,5-difluorobenzamide] was run?
Answer: The EC50 was 25200 nM.

Question: `Cc1ncsc1CCS(=O)(=O)Nc1ccc(C(F)(F)F)cc1C(=O)NC12CCC(F)(CC1)CC2` [Example 201, N-(4-fluorobicyclo[2.2.2]octan-1-yl)-2-((2-(4-methylthiazol-5-yl)ethyl)sulfonamido)-5-(trifluoromethyl)benzamide] was tested. Which EC50 did it give?
Answer: The EC50 was 1290 nM.

Question: How did the EC50 turn out when `CS(=O)(=O)c1ccc(S(=O)(=O)Nc2cc(F)ccc2C(=O)NC23CC(c4ccccc4)(C2)C3)cc1` [Example 12, 4-fluoro-2-((4-(methylsulfonyl)phenyl)sulfonamido)-N-(3-phenylbicyclo[1.1.1]pentan-1-yl)benzamide] was run?
Answer: Its EC50 is 6880 nM.

Question: `CCS(=O)(=O)c1ccc(S(=O)(=O)Nc2cc(C(F)(F)F)ccc2C(=O)NC23CC(C2)C3)cc1` [Example 27, N-(bicyclo[1.1.1]pentan-1-yl)-2-((4-(ethylsulfonyl)phenyl)sulfonamido)-4-(trifluoromethyl)benzamide] was tested. Which EC50 did it give?
Answer: Its EC50 is 4500 nM.

Question: How did the EC50 turn out when `Cc1ncc(S(=O)(=O)Nc2cc(C(F)(F)F)ccc2C(=O)NC23CCC(C#N)(CC2)CC3)s1` [Example 76, N-(4-cyanobicyclo[2.2.2]octan-1-yl)-2-((2-methylthiazole)-5-sulfonamido)-4-(trifluoromethyl)benzamide] was run?
Answer: Its EC50 is 9190 nM.

Question: Which EC50 does the source give for `CC(C)S(=O)(=O)Nc1cc(C(F)(F)F)ccc1C(=O)NC12CC(c3ccccc3)(C1)C2` [Example 54, 2-((1-methylethyl)sulfonamido)-N-(3-phenylbicyclo[1.1.1]pentan-1-yl)-4-(trifluoromethyl)benzamide] here?
Answer: The EC50 was 1220 nM.

Question: Which EC50 does the source give for `N#CC12CCC(NC(=O)c3cc(C(F)(F)F)ccc3NS(=O)(=O)C3CC3)(CC1)CC2` [Example 125, N-(4-cyanobicyclo[2.2.2]octan-1-yl)-2-(cyclopropanesulfonamido)-5-(trifluoromethyl)benzamide] here?
Answer: The EC50 was 12400 nM.

Question: How did the EC50 turn out when `N#Cc1ccc(NS(=O)(=O)N2CCCC2)c(C(=O)NC23CCC(C#N)(CC2)CC3)c1` [Example 131, 5-cyano-N-(4-cyanobicyclo[2.2.2]octan-1-yl)-2-(pyrrolidine-1-sulfonamido)benzamide] was run?
Answer: The EC50 was 19500 nM.

Question: `O=C(NC12CC(Cl)(C1)C2)c1cc(C(F)(F)F)ccc1NS(=O)(=O)C1COC1` [Example 74, N-(3-chlorobicyclo[1.1.1]pentan-1-yl)-2-(oxetane-3-sulfonamido)-5-(trifluoromethyl)benzamide] was tested. Which EC50 did it give?
Answer: Its EC50 is 6170 nM.

Question: How did the EC50 turn out when `O=C(NC12CC(c3ccccc3)(C1)C2)c1ccc(C(F)(F)F)cc1NS(=O)(=O)c1ccc(S(=O)(=O)C(F)F)cc1` [Example 44, 2-((4-((difluoromethyl)sulfonyl)phenyl)sulfonamido)-N-(3-phenylbicyclo[1.1.1]pentan-1-yl)-4-(trifluoromethyl)benzamide] was run?
Answer: Its EC50 is 1160 nM.

Question: `CS(=O)(=O)c1ccc(S(=O)(=O)Nc2cc(F)ccc2C(=O)NC23CC(F)(C2)C3)cc1` [Example 21, 4-fluoro-N-(3-fluorobicyclo[1.1.1]pentan-1-yl)-2-((4-(methylsulfonyl)phenyl)sulfonamido)benzamide] was tested. Which EC50 did it give?
Answer: Its EC50 is 38900 nM.

Question: With `COC1CN(S(=O)(=O)Nc2ccc(C(F)(F)F)cc2C(=O)NC23CCC(C#N)(CC2)CC3)C1` [Example 182, N-(4-cyanobicyclo[2.2.2]octan-1-yl)-2-((3-methoxyazetidine)-1-sulfonamido)-5-(trifluoromethyl)benzamide] as the compound, how does the EC50 read?
Answer: The EC50 was 13000 nM.

Question: Which EC50 does the source give for `CS(=O)(=O)c1ccc(S(=O)(=O)Nc2cc(C(F)(F)F)ccc2C(=O)NC23CC(C(F)(F)F)(C2)C3)cc1` [Example 8, 2-((4-(methylsulfonyl)phenyl)sulfonamido)-4-(trifluoromethyl)-N-(3-(trifluoromethyl)bicyclo[1.1.1]pentan-1-yl)benzamide] here?
Answer: Its EC50 is 4100 nM.
